≈ marks a conversion by molar mass, not a printed value.
How the values were obtained:
[1] = system: Nocardia brasiliensis IFM 0089; assay: Susceptibility to antibiotics of the producing strain; assay type: cell-based
Procedure: The present strain was cultured in a medium (brain heart infusion containing 2% glucose) at 250 rpm at 30° C. for 72 hours with shaking, and the cells grown in the medium was harvested by centrifugation (3000 rpm×10 minutes) and washed twice with distilled water. Further, the cells were washed with ethanol and then dried under vacuum to give the dried cells. The amino acid composition, sugar composition and lipid composition of the cell wall of this dried cells were examined on the basis of Bergey's Manual of Determinative Bacteriology, 9th ed., Williams, Baltimore, 1993. Meso-diaminopimelic acid was detected in the amino acid analysis, and arabinose and galactose were detected in the sugar analysis. The presence of mycolic acid was confirmed from the result of the lipid analysis, and its type was Nocardia type. Isoprenoid quinone, i.e., a cell lipid component was confirmed to contain MK-8 (H4) cycle as a major component. The present strain was identified as Nocardia brasiliensis, further from its ability to assimilate casein, hypoxanthine and tyrosine and from its production pattern of acid from sugar and its susceptibility pattern to antimicrobial agents as shown in Table 4 (Mikami & Yazawa, Susceptibility pattern of pathogenic Nocardia to some selected antimicrobial agents and their usefulness in the identification work in a clinical laboratory: Bull. JFCC "Bulltein of the Japan Federation for Culture Collections", 5: 89-95, 1989).

[2] = system: adriamycin-resistant P388 (P388/ADR) cells; assay: Cytotoxicity on adriamycin resistant P388 (P388/ADR) (MTT); assay type: cell-based; settings: 72 hours, read-out: IC50 (growth of tumor cells)
Procedure: (§1) Cytotoxicity of compound 0089-D on cultured tumor cell lines, P388, adriamycin resistant P388 (P388/ADR), L1210 and KB was examined in the following manner.
(§2) L1210 was suspended in RPMI1640 medium, P388 and P388/ADR in RPMI1640 medium containing 20 μM of 2-mercaptoethanol, and KB in Dulbecco's MEM medium (any medium contained 10% fetal bovine serum) respectively whereby cell suspension (5.6×10^4 cells/ml) were prepared. The test sample was dissolved in methanol and diluted serially with each medium to give solutions containing the test sample at various concentrations. […] 72 hours thereafter, cell growth was measured by the following calorimetric assay method using 3-(4,5-dimethyl-2-thiazolyl)-2,5-diphenyl-2H-tetrazolium bromide (MTT).
(§3) That is, 20 μl of 2 mg/ml MTT solution was added to each well and the cells were incubated for 4 hours at 37° C. Thereafter, 50 μl of 50% dimethylformamide solution containing 20% sodium dodecyl sulfate was added to each well to dissolve the formed violet formazan crystal, and its absorbance at 570 nm was measured in a microplate reader (immunoreader) and used as an indicator of the growth. […]
(§4) Degree of inhibition=[1--(absorbance in the presence of test sample)/(absorbance in the absence of test sample)]×100

KB cells = assay: Cytotoxicity on cultured tumor cell line KB (MTT); assay type: cell-based; settings: Homo sapiens, 72 hours, read-out: IC50 (growth of tumor cells)
Procedure: as §1, §2, §3, §4

[3] = system: Aspergillus niger ATCC40606; assay: Antimicrobial activity, MIC (fungi); assay type: cell-based; settings: Aspergillus niger ATCC40606, Sabouraud's Dextrose liquid medium, 37° C., 24 hours
Procedure: (§5) The antimicrobial activity of compound 0089-D on various microorganisms was confirmed by determining minimum inhibitory concentration (MIC) on growth.
(§6) The MIC of compound 0089-D for various microorganisms was determined in a Muller Hinton broth (BBL) containing 0.2% glucose according to the regulations of the Japan Chemotherapy Association (The Essentials of Antibiotics, 4th ed., Tokyo University Press, 1992).
(§7) To determine MIC for fungi, Sabouraud's Dextrose liquid medium was used and the density of the test fungi was 1×10^4 cfu/ml.
(§8) The test sample (compound 0089-D) was dissolved in methanol and diluted in the above Muller Hinton broth by subjecting it to serial 2-fold dilution starting at the concentration of 1 mg/ml. 180 μl of the test microorganism liquid and 20 μl of the test sample solution were put through a pipette to a 96-well micro-titer plate and incubated at 37° C. 24 hours thereafter, growth was examined by the eye to determine MIC.

[4] = system: Candida albicans ATCC90028; assay: Antimicrobial activity, MIC (fungi); assay type: cell-based; settings: Candida albicans ATCC90028, Sabouraud's Dextrose liquid medium, 37° C., 24 hours
Procedure: as §5, §6, §7, §8

L1210 cells = assay: Cytotoxicity on cultured tumor cell line L1210 (MTT); assay type: cell-based; settings: Mus musculus, L1210, 72 hours, read-out: IC50 (growth of tumor cells)
Procedure: as §1, §2, §3, §4

[5] = system: cultured tumor cells (P388, P388/ADR, L1210 and KB); assay: Cytotoxicity on the cultured tumor cells, overall (MTT); assay type: cell-based; settings: in words
Procedure: as §1, §2, §3, §4

various microorganisms = assay: Antimicrobial activity on various microorganisms, overall; assay type: cell-based; settings: in words
Procedure: as §5, §6
(§9) Each test microorganism was prepared at density of 1×10^6 cfu/ml in the above medium to prepare a test microorganism liquid.
as §7, §8

N. asteroides IFM0319 = assay: Antimicrobial activity, MIC; assay type: cell-based; settings: Nocardia asteroides; N. asteroides IFM0319, Muller Hinton broth, 37° C., 24 hours
Procedure: as §5, §6, §9, §8

M. phlei ATCC11758 = assay: Antimicrobial activity, MIC; assay type: cell-based; settings: Mycolicibacterium phlei; M. phlei ATCC11758, Muller Hinton broth, 37° C., 24 hours
Procedure: as §5, §6, §9, §8

[6] = system: N. pseudobrasiliensis IFM0624; assay: Antimicrobial activity, MIC; assay type: cell-based; settings: N. pseudobrasiliensis IFM0624, Muller Hinton broth, 37° C., 24 hours
Procedure: as §5, §6, §9, §8

[7] = system: Mycobacterium smegmatis ATCC607; assay: Antimicrobial activity, MIC; assay type: cell-based; settings: Mycolicibacterium smegmatis; Mycobacterium smegmatis ATCC607, Muller Hinton broth, 37° C., 24 hours
Procedure: as §5, §6, §9, §8

N. brasiliensis IFM0236 = assay: Antimicrobial activity, MIC; assay type: cell-based; settings: N. brasiliensis IFM0236, Muller Hinton broth, 37° C., 24 hours
Procedure: as §5, §6, §9, §8

[8] = system: Nocardia transvalensis IFM0333; assay: Antimicrobial activity, MIC; assay type: cell-based; settings: Nocardia transvalensis IFM0333, Muller Hinton broth, 37° C., 24 hours
Procedure: as §5, §6, §9, §8

[9] = system: Micrococcus luteus IFM2066; assay: Antimicrobial activity, MIC; assay type: cell-based; settings: Micrococcus luteus IFM2066, Muller Hinton broth, 37° C., 24 hours
Procedure: as §5, §6, §9, §8

[10] = system: N. otitidiscaviarum IFM0239; assay: Antimicrobial activity, MIC; assay type: cell-based; settings: N. otitidiscaviarum IFM0239, Muller Hinton broth, 37° C., 24 hours
Procedure: as §5, §6, §9, §8

N. farcinica IFM0284 = assay: Antimicrobial activity, MIC; assay type: cell-based; settings: Nocardia farcinica; N. farcinica IFM0284, Muller Hinton broth, 37° C., 24 hours
Procedure: as §5, §6, §9, §8

N. nova IFM0290 = assay: Antimicrobial activity, MIC; assay type: cell-based; settings: N. nova IFM0290, Muller Hinton broth, 37° C., 24 hours
Procedure: as §5, §6, §9, §8

Bacillus subtilis PCI189 = assay: Antimicrobial activity, MIC; assay type: cell-based; settings: Bacillus subtilis PCI189, Muller Hinton broth, 37° C., 24 hours
Procedure: as §5, §6, §9, §8

M. flavescens ATCC14474 = assay: Antimicrobial activity, MIC; assay type: cell-based; settings: Mycolicibacterium flavescens; M. flavescens ATCC14474, Muller Hinton broth, 37° C., 24 hours
Procedure: as §5, §6, §9, §8

Solubility = assay type: physicochemical
P388 cells = assay: Cytotoxicity on cultured tumor cell line P388 (MTT); assay type: cell-based; settings: Mus musculus, P388, 72 hours, read-out: IC50 (growth of tumor cells)
Procedure: as §1, §2, §3, §4

Micrococcus luteus = assay: Paper disk method, growth inhibition of Micrococcus luteus; assay type: cell-based; settings: nutrient agar, 30° C., 24 hours
Procedure: The resulting culture, 150 L, was filtered through a filter cloth whereby the cells were recovered. The operation of extracting the cells was carried out by adding 20 L methanol. The thus-obtained extract was concentrated and evaporated into dryness in an evaporator. 1 L distilled water was added to 4 g of the dried matter to give a suspension, which was then partitioned and extracted 3 times with 1 L of n-hexane. The n-hexane fraction, 3 L, was concentrated and evaporated into dryness in an evaporator, dissolved in 8 ml of an n-hexane:ethyl acetate mixture (20:1) and subjected to silica gel chromatography (column 6 cm×20 cm). After impurities were eluted with 2 L of an n-hexane : ethyl acetate mixture (20 1), compound 0089-D was eluted with 2 L of an n-hexane:ethyl acetate mixture (10:1). Detection of compound 0089-D in the eluted fraction was carried out using growth inhibitory activity on a test microorganism Micrococcus luteus as the indicator by the following paper disk method.
The eluted fraction was adsorbed onto a paper disk and placed on a nutrient agar medium (Difco) on which M. luteus had been spread, and then incubated at 30° C. for 24 hours.

Q: For O=c1[nH]cc(F)c(=O)[nH]1 [Compound 5-FU, 5-FU], which Susceptibility to antibiotics [1] is on record?
A: negative

Q: For [C-]#[N+]C(=C\c1cn(C)c2ccccc12)/C=C/C(=C)C [Compound 0089-D], which IC50 [2] is on record?
A: 0.56 µg/mL (≈ 2.26 µM)

Q: And the IC50 (KB cells)?
A: 0.75 µg/mL (≈ 3.02 µM)

Q: And the MIC [3]?
A: 0.39 µg/mL (≈ 1.57 µM)

Q: And the MIC [4]?
A: 25 µg/mL (≈ 101 µM)

Q: And the IC50 (L1210 cells)?
A: 0.25 µg/mL (≈ 1.01 µM)

Q: And the “cytotoxicity on the cultured tumor cells” value [5]?
A: strong cytotoxicity

Q: What about the antimicrobial spectrum (various microorganisms) of the same compound?
A: wide antimicrobial spectrum

Q: And the MIC (N. asteroides IFM0319)?
A: 12.5 µg/mL (≈ 50.3 µM)

Q: What about the MIC (M. phlei ATCC11758) of the same compound?
A: 1.56 µg/mL (≈ 6.28 µM)

Q: What about the MIC [6] of the same compound?
A: 3.13 µg/mL (≈ 12.6 µM)

Q: And the MIC [7]?
A: 0.78 µg/mL (≈ 3.14 µM)

Q: And the MIC (N. brasiliensis IFM0236)?
A: 25 µg/mL (≈ 101 µM)

Q: And the MIC [8]?
A: 3.13 µg/mL (≈ 12.6 µM)

Q: And the MIC [9]?
A: 3.13 µg/mL (≈ 12.6 µM)

Q: What about the MIC [10] of the same compound?
A: 6.25 µg/mL (≈ 25.2 µM)

Q: What about the MIC (N. farcinica IFM0284) of the same compound?
A: 12.5 µg/mL (≈ 50.3 µM)

Q: And the MIC (N. nova IFM0290)?
A: 1.56 µg/mL (≈ 6.28 µM)

Q: And the MIC (Bacillus subtilis PCI189)?
A: 3.13 µg/mL (≈ 12.6 µM)

Q: And the MIC (M. flavescens ATCC14474)?
A: 3.13 µg/mL (≈ 12.6 µM)

Q: And the Solubility (Solubility; ether)?
A: Soluble

Q: What about the Solubility (Solubility; ethyl acetate) of the same compound?
A: Soluble

Q: And the Solubility (Solubility; hexane)?
A: Slightly soluble

Q: What about the Solubility (Solubility; methanol) of the same compound?
A: Soluble

Q: What about the Solubility (Solubility; water) of the same compound?
A: Insoluble

Q: And the IC50 (P388 cells)?
A: 0.44 µg/mL (≈ 1.77 µM)

Q: And the “inhibition zone of growth” value (Micrococcus luteus)?
A: inhibition zone of growth of M. luteus

Q: Which Susceptibility to antibiotics [1] does the source give for C[C@@H](O)[C@H]1C(=O)N2C(C(=O)O)=C(SCCN=CN)C[C@H]12 [imipenem] here?
A: negative

Q: Which Susceptibility to antibiotics [1] does the source give for NC[C@H]1O[C@H](O[C@H]2[C@H](O)[C@@H](O[C@H]3O[C@H](CO)[C@@H](O)[C@H](N)[C@H]3O)[C@H](N)C[C@@H]2N)[C@H](O)[C@@H](O)[C@@H]1O [kanamycin] here?
A: negative

Q: Which Susceptibility to antibiotics [1] does the source give for NC[C@H]1O[C@H](O[C@H]2[C@H](O)[C@@H](O[C@H]3O[C@H](CO)[C@@H](O)[C@H](N)[C@H]3O)[C@H](N)C[C@@H]2N)[C@H](N)C[C@@H]1O [tobramycin] here?
A: positive

From US5922582A, “Indole alkaloid type compound 0089-D” (HIGETA SHOYU Co., Ltd., priority 1998, dated 1999)
